Test results: publication PMC10108347, “Heterobifunctional Ligase Recruiters Enable pan-Degradation of Inhibitor of Apoptosis Proteins” (Journal of Medicinal Chemistry, 2023)
Several values for one entry are separate records, joined by “and”; a condition that tells them apart may be missing. Identical values can stand only once. Entries after “also recorded” stand apart in the source; their conditions may differ. Like-named read-outs stand apart in the source and are kept apart here.

Experiments:
HEL = assay: CellTiter-Glo cell viability assay, HEL; assay type: cell-based; settings: Homo sapiens
Protocol: (§1) As TNF-α and related signaling cascades represent crucial factors for the single-agent activity of IAP-targeting compounds,[29],[38],[39],[55] the viability inhibition of sensitive cell lines was evaluated in the presence and absence of this inflammatory stimulus. […] These effects were independent of IAP baseline levels (Figure S16), which is in agreement with the previous studies of IAP antagonists.
(§2) Cells were seeded in 384-well plates with respective treatments, and plates were incubated at 37 °C for 96 h. Viability assays were performed with or without the addition of TNF-α at 1 ng/mL. The cell viability readout was measured using the CellTiter-Glo Luminescent Cell Viability Assay (Promega, Madison, USA) and measured with a Synergy LX Multi-Mode plate reader (BioTek, Vermont, USA). All conditions were normalized to the DMSO-treated control. Data represents the mean ± SD of biological triplicates.

cIAP1 = cIAP1 (Homo sapiens, UniProt Q13490); assay: Immunoblotting (western blot) quantification of cIAP1 levels in MM.1S cells; parameters: Dmax: dose or concentration left out as unconfirmed; settings: for remaining activity at 0.1 µM: read-out: %remaining protein cIAP1, MM.1S cells, 16 h treatment at 0.1 μM, normalized to loading control and DMSO
Protocol: (§3) To evaluate the capability of our panel of hetero-PROTACs for E3 ligase degradation, VHL19, VHL30, CRBN, cIAP1, cIAP2, and XIAP levels were quantified by western blot analyses. […] SDS-PAGE was performed, and proteins were then transferred onto PVDF membranes. Blotted membranes were blocked with 5% milk in Tris-buffered saline/Tween20 (TBST). Primary antibodies were diluted in 5% BSA in TBST, and incubations were performed overnight at 4 °C. Secondary HRP-conjugated antibodies diluted in 5% milk were incubated for 1 h at room temperature. Detection of proteins on PVDF was carried out using the WesternBright ECL HRP substrate or the WesternBright Sirius HRP substrate (Advansta, San Jose, USA) and imaged with LAS 4000× (Fujifilm). Membranes were subjected to 10 min incubation with Restore Western Blot Stripping Buffer (Thermo Fisher Scientific, Waltham, USA), followed by TBST washes. After brief re-activation with methanol, the membranes were blocked, and further probing of proteins was carried out.
(§4) Quantification of blots was performed using ImageJ software (National Institutes of Health).

SUDHL6 = assay: CellTiter-Glo cell viability assay, SUDHL6; assay type: cell-based; settings: Homo sapiens, SU-DHL-6
Protocol: as §1, §2

MM.1S cells proteome = assay: diaPASEF quantitative proteomics in MM.1S cells: proteome-wide degradation selectivity (other proteins); assay type: cell-based, human; settings: for Precursor intensity (DIA-NN), CLPX precursor AAAAADLANR2: CLPX_HUMAN (O76031), ATP-dependent Clp protease ATP-binding subunit clpX-like, mitochondrial; for Precursor intensity (DIA-NN), CLPX precursor AAAAADLANR2 / Precursor intensity (DIA-NN), RPL4 precursor AAAAAAALQAK2 / Precursor intensity (DIA-NN), SAMD1 precursor AAAAAATAPPSPGPAQPGPR2 / Precursor intensity (DIA-NN), ZFP91 precursor AAAAAAAAAVSR2: precursor charge 2; for Precursor intensity (DIA-NN), CLPX precursor AAAAADLANR2 / Precursor intensity (DIA-NN), RPL4 precursor AAAAAAALQAK1 / Precursor intensity (DIA-NN), RPL4 precursor AAAAAAALQAK2 / Precursor intensity (DIA-NN), SAMD1 precursor AAAAAATAPPSPGPAQPGPR2 / Precursor intensity (DIA-NN), ZFP91 precursor AAAAAAAAAVSR2: per-replicate values (rep1, rep2); for Precursor intensity (DIA-NN), RPL4 precursor AAAAAAALQAK1 / Precursor intensity (DIA-NN), RPL4 precursor AAAAAAALQAK2: RL4_HUMAN (P36578), 60S ribosomal protein L4; for Precursor intensity (DIA-NN), RPL4 precursor AAAAAAALQAK1: precursor charge 1; for Precursor intensity (DIA-NN), SAMD1 precursor AAAAAATAPPSPGPAQPGPR2: SAMD1_HUMAN (Q6SPF0), Atherin; for Precursor intensity (DIA-NN), ZFP91 precursor AAAAAAAAAVSR2: ZFP91_HUMAN (Q96JP5), E3 ubiquitin-protein ligase ZFP91
Protocol: To analyze the proteome-wide degradation selectivity of hetero-PROTACs 9, 25, and 27, a diaPASEF-based mass spectrometry approach was employed.[54] MM.1S cells were treated with 100 nM PROTACs for 3 h. […] Accordingly, global proteomic plots show the mathematically imputed levels of IAP proteins in treatment groups if the corresponding IAP was detected in the control treatment (see also Experimental Section).
MM1s cells were treated with DMSO or 0.1 μM of compound for 3 h. The cells were harvested by centrifugation and washed with phosphate-buffered saline before snap-freezing in liquid nitrogen. The cells were lysed by addition of lysis buffer (8 M urea, 50 mM NaCl, 50 mM 4-(2-hydroxyethyl)-1-piperazine-ethanesulfonic acid (EPPS) pH 8.5, protease, and phosphatase inhibitors) and homogenization by bead beating (BioSpec) for three repeats of 30 s at 2400. Bradford assay was used to determine the final protein concentration in the clarified cell lysate. 50 μg of protein for each sample was reduced, alkylated, and precipitated using methanol/chloroform as previously described,[64] and the resulting washed precipitated protein was allowed to air dry. The precipitated protein was resuspended in 4 M urea, 50 mM HEPES pH 7.4, followed by dilution to 1 M urea with the addition of 200 mM EPPS, pH 8. […] The LysC digestion was diluted to 0.5 M urea with 200 mM EPPS pH 8, followed by digestion with trypsin (1:50; enzyme/protein) for 6 h at 37 °C. Sample digests were acidified with formic acid to a pH of 2–3 prior to desalting using C18 solid-phase extraction plates (SOLA, Thermo Fisher Scientific). Desalted peptides were dried in a vacuum centrifuge and reconstituted in 0.1% formic acid for LC–MS analysis.
Data were collected using a TimsTOF Pro2 (Bruker Daltonics, Bremen, Germany) coupled to a nanoElute LC pump (Bruker Daltonics, Bremen, Germany) via a CaptiveSpray nanoelectrospray source. […] Peptides were separated using a 50 min gradient of 2–30% buffer B (acetonitrile in 0.1% formic acid) with a flow rate of 250 nL/min and column temperature maintained at 50 °C.
Data-Dependent Acquisition (DDA) was performed in the Parallel Accumulation-Serial Fragmentation (PASEF) mode to determine effective ion mobility windows for downstream diaPASEF data collection.[54] The diaPASEF parameters included 100% duty cycle using accumulation and ramp times of 50 ms each, 1 TIMS-MS scan, and 10 PASEF ramps per acquisition cycle. The TIMS-MS survey scan was acquired between 100–1700 m/z and 1/K0 of 0.7–1.3 V × s/cm^2. Precursors with 1–5 charges were selected, and those that reached an intensity threshold of 20,000 arbitrary units were actively excluded for 0.4 min. The quadrupole isolation width was set to 2 m/z for m/z < 700 and 3 m/z for m/z > 800, with the m/z between 700 and 800 m/z being interpolated linearly. […] To perform diaPASEF, the precursor distribution in the DDA m/z-ion mobility plane was used to design an acquisition scheme for DIA data collection, which included two windows in each 50 ms diaPASEF scan. Data was acquired using 16 of these 25 Da precursor double window scans (creating 32 windows), which covered the diagonal scan line for doubly and triply charged precursors, with singly charged precursors able to be excluded by their position in the m/z-ion mobility plane. These precursor isolation windows were defined between 400–1200 m/z and 1/K0 of 0.7–1.3 V × s/cm^2.
The diaPASEF raw file processing and controlling peptide and protein level false discovery rates, assembling proteins from peptides, and protein quantification from peptides were performed using library-free analysis in DIA-NN 1.8.[65] The library-free mode performs an in silico digestion of a given protein sequence database alongside deep learning-based predictions to extract the DIA precursor data into a collection of MS^2 spectra.

K562 = assay: CellTiter-Glo cell viability assay, K562; assay type: cell-based; settings: Homo sapiens
Protocol: as §1, §2

cIAP2 = cIAP2 (Homo sapiens, UniProt Q13489); assay: Immunoblotting (western blot) quantification of cIAP2 levels in MM.1S cells; parameters: Dmax: dose or concentration left out as unconfirmed; settings: for remaining activity at 0.1 µM: read-out: %remaining protein cIAP2, MM.1S cells, 16 h treatment at 0.1 μM, normalized to loading control and DMSO
Protocol: as §3, §4

XIAP = XIAP (Homo sapiens, UniProt P98170); assay: Immunoblotting (western blot) quantification of XIAP levels in MM.1S cells; parameters: Dmax: dose or concentration left out as unconfirmed; settings: for remaining activity at 0.1 µM: read-out: %remaining protein XIAP, MM.1S cells, 16 h treatment at 0.1 μM, normalized to loading control and DMSO
[1] = MM.1S cells, 16 h, western blot, 0.1 or 1 μM
[2] = MM.1S cells, 0.1 μM, 3 h, log2 fold change compound vs CTRLs (limma)

Sequence of cIAP2 (Q13489 whole entry): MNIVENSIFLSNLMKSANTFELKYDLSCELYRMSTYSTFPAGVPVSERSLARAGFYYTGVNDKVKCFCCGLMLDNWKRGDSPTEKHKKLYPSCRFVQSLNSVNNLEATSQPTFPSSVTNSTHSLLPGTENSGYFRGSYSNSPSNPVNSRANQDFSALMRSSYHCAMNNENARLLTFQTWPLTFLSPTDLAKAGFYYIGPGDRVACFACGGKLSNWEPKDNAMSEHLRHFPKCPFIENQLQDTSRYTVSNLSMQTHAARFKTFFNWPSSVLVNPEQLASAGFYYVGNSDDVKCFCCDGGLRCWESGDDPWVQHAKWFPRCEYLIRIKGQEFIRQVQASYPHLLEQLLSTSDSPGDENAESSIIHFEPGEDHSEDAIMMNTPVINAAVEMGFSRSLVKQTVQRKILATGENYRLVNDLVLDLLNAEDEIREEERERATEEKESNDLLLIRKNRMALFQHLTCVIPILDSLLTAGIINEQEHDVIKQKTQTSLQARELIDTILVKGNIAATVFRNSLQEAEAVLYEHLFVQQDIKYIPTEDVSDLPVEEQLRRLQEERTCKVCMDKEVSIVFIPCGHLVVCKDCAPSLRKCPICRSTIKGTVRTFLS
Sequence of cIAP1 (Q13490 whole entry): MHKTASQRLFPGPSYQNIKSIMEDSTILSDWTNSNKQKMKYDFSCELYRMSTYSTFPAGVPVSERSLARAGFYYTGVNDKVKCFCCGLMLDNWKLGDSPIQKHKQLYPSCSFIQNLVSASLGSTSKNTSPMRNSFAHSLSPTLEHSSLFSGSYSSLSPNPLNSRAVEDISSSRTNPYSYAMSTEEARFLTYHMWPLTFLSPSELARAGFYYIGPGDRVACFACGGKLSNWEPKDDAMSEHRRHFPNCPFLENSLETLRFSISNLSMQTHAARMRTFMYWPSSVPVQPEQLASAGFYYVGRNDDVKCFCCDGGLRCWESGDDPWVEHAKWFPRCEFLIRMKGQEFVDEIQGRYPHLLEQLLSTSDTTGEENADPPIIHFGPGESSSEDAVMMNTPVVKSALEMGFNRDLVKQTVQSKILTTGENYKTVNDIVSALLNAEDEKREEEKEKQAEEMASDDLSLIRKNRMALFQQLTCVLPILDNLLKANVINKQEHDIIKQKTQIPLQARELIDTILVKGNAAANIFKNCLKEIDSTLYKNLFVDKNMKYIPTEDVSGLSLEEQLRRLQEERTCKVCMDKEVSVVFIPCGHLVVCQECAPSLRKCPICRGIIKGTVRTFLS
Sequence of XIAP (P98170 whole entry): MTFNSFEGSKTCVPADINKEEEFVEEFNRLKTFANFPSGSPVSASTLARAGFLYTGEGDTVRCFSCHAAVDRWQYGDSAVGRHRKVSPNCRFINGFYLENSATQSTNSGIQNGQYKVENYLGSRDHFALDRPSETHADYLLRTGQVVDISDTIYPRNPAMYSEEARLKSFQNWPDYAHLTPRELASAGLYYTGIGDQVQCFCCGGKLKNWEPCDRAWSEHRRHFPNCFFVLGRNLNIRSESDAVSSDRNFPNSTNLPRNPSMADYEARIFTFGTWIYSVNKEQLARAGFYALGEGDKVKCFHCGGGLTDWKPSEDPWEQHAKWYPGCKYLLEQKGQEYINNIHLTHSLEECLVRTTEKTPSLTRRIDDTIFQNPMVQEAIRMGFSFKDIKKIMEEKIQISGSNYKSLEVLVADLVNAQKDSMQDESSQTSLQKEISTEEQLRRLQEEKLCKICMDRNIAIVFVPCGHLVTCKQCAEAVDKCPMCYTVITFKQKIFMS

CN[C@@H](C)C(=O)N[C@@H](C(=O)N1CCC[C@H]1C(=O)N[C@@H]1c2ccccc2C[C@@H]1OCC#CC#CCO[C@H]1Cc2ccccc2[C@H]1NC(=O)[C@@H]1CCCN1C(=O)[C@H](NC(=O)[C@H](C)NC)C1CCCCC1)C1CCCCC1 [AZD5582, reference compound]
IC50 (HEL; SI csv, head prints only the cell line, no quantity or unit, values parallel Table 1/S8, read-out: HEL): 64 nM
cIAP1 degradation (in words) (cIAP1; [1]): substantial degradation
IC50 (SUDHL6; SI csv, head prints only the cell line, no quantity or unit, values parallel Table 1/S8, read-out: SUDHL6): 1.5 nM
Precursor intensity (DIA-NN), CLPX precursor AAAAADLANR2 (MM.1S cells proteome): 16915 and 25995.2
logFC ATP5MD (MM.1S cells proteome; [2]): -0.4905
logFC CD44 (MM.1S cells proteome; [2]): -0.09493
logFC EDF1 (MM.1S cells proteome; [2]): -0.1747
logFC GOT2 (MM.1S cells proteome; [2]): -0.1164
logFC RRP15 (MM.1S cells proteome; [2]): -0.3053
Precursor intensity (DIA-NN), RPL4 precursor AAAAAAALQAK1 (MM.1S cells proteome): 331.845
Precursor intensity (DIA-NN), RPL4 precursor AAAAAAALQAK2 (MM.1S cells proteome): 447305 and 464651
Precursor intensity (DIA-NN), SAMD1 precursor AAAAAATAPPSPGPAQPGPR2 (MM.1S cells proteome): 15006.1 and 13237.9
Precursor intensity (DIA-NN), ZFP91 precursor AAAAAAAAAVSR2 (MM.1S cells proteome): 67729.2 and 74323
IC50 (K562; SI csv, head prints only the cell line, no quantity or unit, values parallel Table 1/S8, read-out: K562): 19 nM
cIAP2 degradation (in words) (cIAP2; [1]): substantial degradation
XIAP degradation (in words) (XIAP; [1]): failed to degrade XIAP; also recorded: did not influence XIAP levels even at 1 μM

CN[C@@H](C)C(=O)N[C@H](C(=O)N1C[C@@H](Oc2cccc(OCCCCC(=O)N[C@H](C(=O)N3C[C@H](O)C[C@H]3C(=O)N[C@@H](C)c3ccc(-c4scnc4C)cc3)C(C)(C)C)c2)C[C@H]1C(=O)N[C@@H]1CCCc2ccccc21)C1CCCCC1 [PROTAC 9, (2S,4S)-1-((S)-2-Cyclohexyl-2-((S)-2-(methylamino)propanamido)acetyl)-4-(3-((5-(((S)-1-((2S,4R)-4-hydroxy-2-(((S)-1-(4-(4-methylthiazol-5-yl)phenyl)ethyl)carbamoyl)pyrrolidin-1-yl)-3,3-dimethyl-1-oxobutan-2-yl)amino)-5-oxopentyl)oxy)phenoxy)-N-((R)-1,2,3,4-tetrahydronaphthalen-1-yl)pyrrolidine-2-carboxamide]
IC50 (HEL; HEL, AML cell line, 96 h, TNFα-challenged, read-out: IC50 cell viability HEL): 1170 nM
remaining activity at 0.1 µM (cIAP1; MM1.S, 16 h): 5%
Dmax (cIAP1; MM1.S, read-out: Dmax cIAP1 (maximum degradation), MM.1S cells, 16 h): 99%
Dmax cIAP1 (maximum degradation) (cIAP1; MM.1S cells, 16 h, at 0.1 μM): >99%
DC50 (cIAP1; read-out: DC50,16h cIAP1, MM.1S cells, 16 h, densitometric quantification of western blots, n = 4): 2.4 nM
IC50 (SUDHL6; DLBCL cell line, 96 h, TNFα-challenged, read-out: IC50 cell viability SUDHL6): 1.6 nM
Precursor intensity (DIA-NN), CLPX precursor AAAAADLANR2 (MM.1S cells proteome; listed as Gue3582): 27158.9 and 21797.6
logFC EIF1AX (MM.1S cells proteome; [2]): 0.2289
logFC SIGMAR1 (MM.1S cells proteome; [2]): 0.1571
logFC TAF15 (MM.1S cells proteome; [2]): 0.09552
logFC TOP1 (MM.1S cells proteome; [2]): 0.1861
Precursor intensity (DIA-NN), RPL4 precursor AAAAAAALQAK1 (MM.1S cells proteome; listed as Gue3582): 83.0044 and 593.705
Precursor intensity (DIA-NN), RPL4 precursor AAAAAAALQAK2 (MM.1S cells proteome; listed as Gue3582): 450548 and 462008
Precursor intensity (DIA-NN), SAMD1 precursor AAAAAATAPPSPGPAQPGPR2 (MM.1S cells proteome; listed as Gue3582): 15172 and 13054.7
Precursor intensity (DIA-NN), ZFP91 precursor AAAAAAAAAVSR2 (MM.1S cells proteome; listed as Gue3582): 70631.3 and 75175.8
IC50 (K562; K562, AML cell line, 96 h, TNFα-challenged, read-out: IC50 cell viability K562): 420 nM
remaining activity at 0.1 µM (cIAP2; MM1.S, 16 h): 21%
Dmax (cIAP2; MM1.S, read-out: Dmax cIAP2 (maximum degradation), MM.1S cells, 16 h): 90%
Dmax cIAP2 (maximum degradation) (cIAP2; MM.1S cells, 16 h, at 0.1 μM): >90%
DC50 (cIAP2; read-out: DC50,16h cIAP2, MM.1S cells, 16 h, densitometric quantification of western blots, n = 4): 6.2 nM
remaining activity at 0.1 µM (XIAP; MM1.S, 16 h): 7%
Dmax (XIAP; MM1.S, read-out: Dmax XIAP (maximum degradation), MM.1S cells, 16 h): 99%
Dmax XIAP (maximum degradation) (XIAP; MM.1S cells, 16 h, at 0.1 μM): >99%
DC50 (XIAP; read-out: DC50,16h XIAP, MM.1S cells, 16 h, densitometric quantification of western blots, n = 4): 0.7 nM

CN[C@@H](C)C(=O)N[C@H](C(=O)N1C[C@@H](Oc2cccc(OCCCCCCOCCCCCCOCCCCCCNc3cccc4c3C(=O)N(C3CCC(=O)NC3=O)C4=O)c2)C[C@H]1C(=O)N[C@@H]1CCCc2ccccc21)C1CCCCC1 (stereo partly drawn) [PROTAC 27, (2S,4S)-1-((S)-2-Cyclohexyl-2-((S)-2-(methylamino)propanamido)acetyl)-4-(3-((6-((6-((6-((2-(2,6-dioxopiperidin-3-yl)-1,3-dioxoisoindolin-4-yl)amino)hexyl)oxy)hexyl)oxy)hexyl)oxy)phenoxy)-N-((R)-1,2,3,4-tetrahydronaphthalen-1-yl)pyrrolidine-2-carboxamide]
remaining activity at 0.1 µM (cIAP1; MM1.S, 16 h): 27%
logFC COX6C (MM.1S cells proteome; [2]): -0.5143
logFC EIF4B (MM.1S cells proteome; [2]): -0.1592
logFC HNRNPA2B1 (MM.1S cells proteome; [2]): -0.1781
logFC POTEJ (MM.1S cells proteome; [2]): -0.3899
logFC TPM3 (MM.1S cells proteome; [2]): -0.214
remaining activity at 0.1 µM (cIAP2; MM1.S, 16 h): 46%
remaining activity at 0.1 µM (XIAP; MM1.S, 16 h): 8%
